Laboratory results published in ChEMBL document CHEMBL6103543, “Exploring the rhodanine universe: Design and synthesis of fluorescent rhodanine-based derivatives as anti-fibrillar and anti-oligomer agents against α-synuclein and 2N4R tau” (Bioorg Med Chem, 2024).
Active and inactive are the calls of the source. No cut-off for these calls is given here.

What was measured:
Alpha-synuclein [1] = target: T1, Alpha-synuclein (Homo sapiens, UniProt P37840); experiment: Inhibition of recombinant alpha-synuclein (unknown origin) fibril formation assessed as thioflavin T fluorescence intensity at 100 uM measured every 20 mins by Thioflavin T fluorescence assay (reference value: 100 %)
Alpha-synuclein [2] = target: T1, Alpha-synuclein; experiment: Inhibition of alpha-synuclein (unknown origin) oligomer formation assessed as reduction in cross linking at 100 uM preincubated with compound followed by Ru(BPY3) addition and measured after 1 sec light irradiation by coomassie blue staining based PICUP assay
Alpha-synuclein [3] = target: T1, Alpha-synuclein; experiment: Inhibition of recombinant alpha-synuclein (unknown origin) fibril formation assessed as decrease in aggregation at 100 uM incubated for 3 days by transmission electron microscopic analysis; details: time 3.0 day
[4] = target: Microtubule-associated protein tau (Homo sapiens) (UniProt P10636); experiment: Inhibition of Tau 2N4R monomer (unknown origin) fibril formation assessed as decrease in aggregation at 100 uM incubated for 5 days by transmission electron microscopic analysis; details: time 5.0 day
Microtubule-associated protein tau (Homo sapiens), sequence (P10636 whole entry, the tested form may be a part): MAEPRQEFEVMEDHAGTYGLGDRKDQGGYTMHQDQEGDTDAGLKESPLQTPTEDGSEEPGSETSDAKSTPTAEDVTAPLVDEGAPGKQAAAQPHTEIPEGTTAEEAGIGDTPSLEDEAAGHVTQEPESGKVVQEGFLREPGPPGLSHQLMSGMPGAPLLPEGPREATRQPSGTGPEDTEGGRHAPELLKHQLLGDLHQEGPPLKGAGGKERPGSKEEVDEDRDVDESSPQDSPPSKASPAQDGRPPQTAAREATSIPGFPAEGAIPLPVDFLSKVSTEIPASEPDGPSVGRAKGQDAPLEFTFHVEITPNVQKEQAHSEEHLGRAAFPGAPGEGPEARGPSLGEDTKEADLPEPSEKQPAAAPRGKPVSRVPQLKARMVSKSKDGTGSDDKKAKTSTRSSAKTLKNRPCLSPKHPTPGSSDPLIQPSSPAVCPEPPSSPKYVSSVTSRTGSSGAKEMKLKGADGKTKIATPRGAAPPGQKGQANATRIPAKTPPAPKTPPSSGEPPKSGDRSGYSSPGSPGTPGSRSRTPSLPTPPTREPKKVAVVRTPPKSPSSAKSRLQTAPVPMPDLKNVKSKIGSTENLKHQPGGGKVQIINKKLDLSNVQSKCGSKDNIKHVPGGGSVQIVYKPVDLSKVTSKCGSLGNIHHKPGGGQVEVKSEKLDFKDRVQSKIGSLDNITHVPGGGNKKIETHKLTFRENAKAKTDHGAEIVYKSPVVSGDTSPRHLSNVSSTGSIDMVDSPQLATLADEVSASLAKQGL

Alpha-synuclein [5] = target: T1, Alpha-synuclein; experiment: (§1) Inhibition of alpha-syn inclusion formation in human M17D cells expressing doxycyclin-inducible alpha-syn-S3K::YFP inclusion-prone fusion protein assessed as reduction in inclusions at 5 uM treated with compound starting from 24 hrs post plating followed by doxycyclin addition at 48 hrs and measured 96 hrs post plating by Incucyte-based analysis; type: cell-based; details: time 72.0 hrs
[6] = (§2) Cytotoxicity against human M17D cells expressing doxycyclin-inducible alpha-syn-S3K::YFP inclusion-prone fusion protein assessed as reduction in cell confluency at 1.25 to 5 uM treated with compound starting from 24 hrs post plating followed by doxycyclin addition at 48 hrs and measured 96 hrs post plating by Incucyte-based analysis; type: toxicity; details: 72 h, dose 1.25-5 µM
Alpha-synuclein [7] = target: T1, Alpha-synuclein; experiment: Inhibition of recombinant alpha-synuclein (unknown origin) fibril formation assessed as decrease in thioflavin T fluorescence intensity measured every 20 mins by Thioflavin T fluorescence assay
[8] = target: Microtubule-associated protein tau (Homo sapiens) (UniProt P10636); experiment: Inhibition of recombinant Tau 0N4R (unknown origin) aggregation assessed as decrease in fluorescence intensity at 100 uM measured every 5 mins by Thioflavin S fluorescence assay
[9] = target: Microtubule-associated protein tau (Homo sapiens) (UniProt P10636); experiment: Inhibition of recombinant Tau 2N4R (unknown origin) aggregation assessed as decrease in fluorescence intensity at 100 uM measured every 5 mins by Thioflavin S fluorescence assay
[10] = target: Microtubule-associated protein tau (Homo sapiens) (UniProt P10636); experiment: Inhibition of recombinant phosphorylated Tau 1N4R (unknown origin) aggregation assessed as decrease in fluorescence intensity at 100 uM measured every 5 mins by Thioflavin S fluorescence assay
Alpha-synuclein [11] = target: T1, Alpha-synuclein; experiment: Inhibition of alpha-synuclein (unknown origin) oligomer formation assessed as reduction in cross linking preincubated with compound followed by Ru(BPY3) addition and measured after 1 sec light irradiation by coomassie blue staining based PICUP assay; details: dose 50-200 µM
Alpha-synuclein [12] = target: T1, Alpha-synuclein; experiment: Inhibition of alpha-synuclein (unknown origin) oligomer formation assessed as reduction in cross linking at 50 uM preincubated with compound followed by Ru(BPY3) addition and measured after 1 sec light irradiation by coomassie blue staining based PICUP assay relative to control
Alpha-synuclein [13] = target: T1, Alpha-synuclein; experiment: Inhibition of alpha-synuclein (unknown origin) oligomer formation assessed as reduction in cross linking at 100 uM preincubated with compound followed by Ru(BPY3) addition and measured after 1 sec light irradiation by coomassie blue staining based PICUP assay relative to control
[14] = target: Microtubule-associated protein tau (Homo sapiens) (UniProt P10636); experiment: Inhibition of Tau 0N4R (unknown origin) oligomer formation assessed as reduction in cross linking at 50 uM preincubated with compound followed by Ru(BPY3) addition and measured after 15 sec light irradiation by coomassie blue staining based PICUP assay relative to control
[15] = target: Microtubule-associated protein tau (Homo sapiens) (UniProt P10636); experiment: Inhibition of Tau 0N4R (unknown origin) oligomer formation assessed as reduction in cross linking at 100 uM preincubated with compound followed by Ru(BPY3) addition and measured after 15 sec light irradiation by coomassie blue staining based PICUP assay relative to control
[16] = target: Microtubule-associated protein tau (Homo sapiens) (UniProt P10636); experiment: Inhibition of Tau 0N4R (unknown origin) oligomer formation assessed as reduction in cross linking at 200 uM preincubated with compound followed by Ru(BPY3) addition and measured after 15 sec light irradiation by coomassie blue staining based PICUP assay relative to control
[17] = target: Microtubule-associated protein tau (Homo sapiens) (UniProt P10636); experiment: Inhibition of Tau 0N4R (unknown origin) oligomer formation assessed as reduction in cross linking at 300 uM preincubated with compound followed by Ru(BPY3) addition and measured after 15 sec light irradiation by coomassie blue staining based PICUP assay relative to control
Alpha-synuclein [18] = target: T1, Alpha-synuclein; experiment: Inhibition of alpha-synuclein (unknown origin) oligomer formation at 100 uM incubated for 3 days by Western blot analysis; details: time 3.0 day
[19] = target: Microtubule-associated protein tau (Homo sapiens) (UniProt P10636); experiment: Binding affinity to recombinant human 2N4R fibril extracted from Escherichia coli assessed as fluorescence quenching at 1 uM incubated for 40 mins by fluorescence spectrophotometric analysis
Alpha-synuclein [20] = target: T1, Alpha-synuclein; experiment: Binding affinity to alpha-synuclein fibril (unknown origin) assessed as hypsochromic shift at 1 uM incubated for 40 mins by fluorescence spectrophotometric analysis
[21] = target: Amyloid-beta precursor protein (Homo sapiens) (UniProt P05067); experiment: Inhibition of HFIP-induced recombinant amyloid beta (1 to 42) (unknown origin) aggregation assessed as decrease in thioflavin T fluorescence intensity at 100 uM measured every 20 mins by Thioflavin T fluorescence assay
Amyloid-beta precursor protein (Homo sapiens), sequence (P05067 whole entry): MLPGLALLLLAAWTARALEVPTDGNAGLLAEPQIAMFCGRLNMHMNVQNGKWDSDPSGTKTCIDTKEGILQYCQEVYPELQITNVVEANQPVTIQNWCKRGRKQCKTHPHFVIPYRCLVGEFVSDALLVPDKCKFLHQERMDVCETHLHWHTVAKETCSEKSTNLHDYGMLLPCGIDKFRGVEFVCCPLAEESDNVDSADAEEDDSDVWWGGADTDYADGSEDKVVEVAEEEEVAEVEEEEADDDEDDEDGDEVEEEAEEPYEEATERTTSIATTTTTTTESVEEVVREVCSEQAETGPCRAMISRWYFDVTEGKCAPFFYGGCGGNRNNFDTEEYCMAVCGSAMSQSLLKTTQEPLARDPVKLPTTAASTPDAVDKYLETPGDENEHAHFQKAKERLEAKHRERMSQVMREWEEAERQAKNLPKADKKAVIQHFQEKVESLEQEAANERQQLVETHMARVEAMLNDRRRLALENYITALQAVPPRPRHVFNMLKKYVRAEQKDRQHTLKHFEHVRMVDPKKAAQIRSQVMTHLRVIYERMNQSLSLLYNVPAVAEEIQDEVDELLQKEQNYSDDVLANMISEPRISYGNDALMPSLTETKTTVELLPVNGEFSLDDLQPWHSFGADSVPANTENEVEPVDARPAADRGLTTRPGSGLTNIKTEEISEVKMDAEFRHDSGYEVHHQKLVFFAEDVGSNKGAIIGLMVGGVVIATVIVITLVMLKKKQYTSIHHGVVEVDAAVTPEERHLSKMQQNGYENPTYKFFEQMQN

[22] = target: Amyloid-beta precursor protein (Homo sapiens) (UniProt P05067); experiment: Inhibition of amyloid beta aggregation derived from alzhemier's disease patient brain assessed as reduction in plaques at 50 uM incubated for 5 days by transmission electron microscopic analysis; details: time 5.0 day
Alpha-synuclein [23] = target: T1, Alpha-synuclein; experiment: as §1, with “1.25 to 40” for “5”; type: cell-based; details: dose 1.25-40 µM, time 72.0 hrs
[24] = as §2, with “to 40” for “to 5”; type: toxicity; details: 72 h, dose 1.25-40 µM
Alpha-synuclein [25] = target: T1, Alpha-synuclein; experiment: as §1, with “inclusions at 1.25 to 5 uM” for “inclusions at 5 uM”; type: cell-based; details: dose 1.25-5 µM, time 72.0 hrs
[26] = target: Microtubule-associated protein tau (Mus musculus) (UniProt P10637); experiment: Inhibition of Tau aggregation in mouse N2a cells at 15 uM incubated for 5 days by ThS staining based analysis relative to control; type: cell-based; details: time 5.0 day
Microtubule-associated protein tau (Mus musculus), sequence (P10637 whole entry): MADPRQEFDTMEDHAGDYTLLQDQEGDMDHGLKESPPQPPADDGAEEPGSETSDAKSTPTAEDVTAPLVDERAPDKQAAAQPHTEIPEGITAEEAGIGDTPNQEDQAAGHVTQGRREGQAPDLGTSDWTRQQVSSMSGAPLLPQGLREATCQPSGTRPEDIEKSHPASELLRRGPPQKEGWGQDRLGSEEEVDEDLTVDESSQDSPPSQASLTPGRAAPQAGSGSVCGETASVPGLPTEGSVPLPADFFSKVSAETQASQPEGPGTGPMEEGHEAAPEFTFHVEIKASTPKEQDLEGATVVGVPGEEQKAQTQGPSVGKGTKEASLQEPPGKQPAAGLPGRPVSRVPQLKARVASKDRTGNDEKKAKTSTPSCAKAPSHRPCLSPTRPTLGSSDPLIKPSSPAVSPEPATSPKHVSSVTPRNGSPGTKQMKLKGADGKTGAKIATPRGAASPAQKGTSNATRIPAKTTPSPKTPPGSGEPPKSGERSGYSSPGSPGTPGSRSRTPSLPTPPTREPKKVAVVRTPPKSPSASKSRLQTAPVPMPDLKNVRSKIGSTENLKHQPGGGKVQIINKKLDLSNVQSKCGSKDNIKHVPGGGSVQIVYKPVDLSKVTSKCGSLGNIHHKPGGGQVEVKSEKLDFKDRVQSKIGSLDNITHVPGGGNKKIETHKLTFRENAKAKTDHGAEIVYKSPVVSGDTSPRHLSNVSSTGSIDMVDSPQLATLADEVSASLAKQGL

[27] = target: Microtubule-associated protein tau (Homo sapiens) (UniProt P10636); experiment: Binding affinity to recombinant human 2N4R fibril extracted from Escherichia coli assessed as decrease in fluorescence intensity at 1 uM incubated for 60 mins by fluorescence spectrophotometric analysis
Alpha-synuclein [28] = target: T1, Alpha-synuclein; experiment: Binding affinity to alpha-synuclein fibril (unknown origin) assessed as decrease in fluorescence intensity at 1 uM incubated for 60 mins by fluorescence spectrophotometric analysis
[29] = target: Amyloid-beta precursor protein (Homo sapiens) (UniProt P05067); experiment: Inhibition of amyloid beta aggregation derived from alzhemier's disease patient brain assessed as reduction in plaque density at 50 uM incubated for 5 days by transmission electron microscopic analysis; details: time 5.0 day

Structure (SMILES) | Flu intensity (Alpha-synuclein [1]) [%] | inhibition (Alpha-synuclein [2]) | also measured
O=C(O)CCN1C(=O)/C(=C/c2csc3ccccc23)SC1=S | -0.05 | inactive | 
O=C(O)CN1C(=O)/C(=C/c2cc3ccccc3[nH]2)SC1=S | 0.1 | Active | 
COc1ccc2c(/C=C3\SC(=S)N(CCC(=O)O)C3=O)c[nH]c2c1 | > 100 | inactive | 
O=C(O)c1ccc(N2C(=O)/C(=C/c3c[nH]c4ccccc34)SC2=S)cc1O | 8.9 | inactive | inhibition (Alpha-synuclein [3]): Active; Moderate Effect Observed; inhibition [4]: Active; Moderate Effect Observed; inhibition (Alpha-synuclein [5]): Active; Activity [6]: Non-toxic
COc1ccc2c(/C=C3\SC(=S)N(CC(=O)O)C3=O)c[nH]c2c1 | 1.9 | Active | EC50 (Alpha-synuclein [7]): 8.66 µM; inhibition [8]: Active; inhibition [9]: Active; inhibition [10]: Active; inhibition (Alpha-synuclein [11]): Dose-dependent-effect; inhibition (Alpha-synuclein [12]): 81%; inhibition (Alpha-synuclein [13]): 100%; inhibition [14]: 18%; inhibition [15]: 50%; inhibition [16]: 70%; inhibition [17]: 92%; inhibition (Alpha-synuclein [18]): Active; Activity [19]: Active; Activity (Alpha-synuclein [20]): Active; Slight Hypsochromic Shift Observed Without Any Effect On Fluorescence Intensity; inhibition [21]: Active; inhibition [22]: Active; inhibition (Alpha-synuclein [23]): inactive; Activity [24]: Non-toxic
O=C(O)c1ccc(N2C(=O)/C(=C/c3ccc4ccccc4n3)SC2=S)cc1O | > 100 | inactive | inhibition (Alpha-synuclein [25]): inactive; Activity [6]: Non-toxic
O=C(O)CN1C(=O)/C(=C/c2cn(CCO)c3ccccc23)SC1=S | 27 | Active | 
O=C(O)CCN1C(=O)/C(=C/c2coc3ccccc23)SC1=S | 31.8 | inactive | 
O=C(O)CN1C(=O)/C(=C/c2cccc3cc[nH]c23)SC1=S | 15.1 | Active; Weak Inhibition Observed | 
O=C(O)c1ccc(N2C(=O)/C(=C/c3c[nH]c4ccccc34)SC2=S)cc1 | 14.9 | Active | inhibition (Alpha-synuclein [11]): Dose-dependent-effect
O=C(O)c1ccc(N2C(=O)/C(=C/c3nc4ccccc4s3)SC2=S)cc1 | 31.8 | inactive | 
O=C(O)CCN1C(=O)/C(=C/c2nc3ccccc3s2)SC1=S | 12.1 | inactive | inhibition (Alpha-synuclein [3]): Active; Powerful Inhibition Observed
O=C(O)c1ccc(N2C(=O)/C(=C/c3csc4ccccc34)SC2=S)cc1O | 56.7 | inactive | 
O=C(O)c1ccc(N2C(=O)/C(=C/c3coc4ccccc34)SC2=S)cc1O | 29.1 | inactive | 
O=C(O)CCN1C(=O)/C(=C/c2cccc3cc[nH]c23)SC1=S | 14.7 | Active; Weak Inhibition Observed | 
O=C(O)c1ccc(N2C(=O)/C(=C/c3nc4ccccc4s3)SC2=S)cc1O | 25 | inactive | 
O=C(O)c1ccc(N2C(=O)/C(=C/c3coc4ccccc34)SC2=S)cc1 | 15.3 | inactive | 
O=C(O)CN1C(=O)/C(=C/c2csc3ccccc23)SC1=S | 3.2 | inactive | 
O=C(O)c1ccc(N2C(=O)/C(=C/c3ccc4ccccc4n3)SC2=S)cc1 | 84.3 | inactive | 
O=C1/C(=C/c2ccc(-c3cccc(Cl)c3)o2)SC(=S)N1Cc1nc2ccccc2[nH]1 |  |  | inhibition [26]: 70%
O=C(O)CN1C(=O)/C(=C/c2nc3ccccc3s2)SC1=S | 0.8 | inactive | inhibition (Alpha-synuclein [3]): Active; Powerful Inhibition Observed
O=C(O)CCN1C(=O)/C(=C/c2c[nH]c3ccccc23)SC1=S | 1.9 | Active | EC50 (Alpha-synuclein [7]): 13.1 µM; inhibition (Alpha-synuclein [11]): Dose-dependent-effect; inhibition [14]: 13%; inhibition [15]: 13%; inhibition [16]: 25%; inhibition [17]: 78%; inhibition (Alpha-synuclein [18]): Active; Activity [27]: Active; Bathochromic Shift Of 10 Nm Observed; Activity (Alpha-synuclein [28]): Active; Bathochromic Shift Of 10 Nm Observed; inhibition (Alpha-synuclein [3]): Active; inhibition [4]: Active; inhibition [21]: Active; inhibition [22]: Active; inhibition [29]: Active; inhibition (Alpha-synuclein [23]): inactive; Activity [24]: Non-toxic
O=C(O)CCN1C(=O)/C(=C/c2ccc3ccccc3n2)SC1=S | 25 | inactive | 
O=C(O)CN1C(=O)/C(=C/c2ccc3ccccc3n2)SC1=S | 5.4 | inactive | 
O=C(O)CCN1C(=O)/C(=C/c2cc3ccccc3[nH]2)SC1=S | 0.5 | Active | 
O=C(O)CN1C(=O)/C(=C/c2coc3ccccc23)SC1=S | 24.7 | inactive | 
O=C(O)CN1C(=O)/C(=C/c2c[nH]c3ccccc23)SC1=S | 10.1 | Active | inhibition (Alpha-synuclein [11]): Dose-dependent-effect
O=C(O)c1ccc(N2C(=O)/C(=C/c3csc4ccccc34)SC2=S)cc1 | 70.4 | inactive | 
